Assays:
Type in all cases: ADME
Settings in all cases: 0.5 h
Cytochrome P450 2C9 [1] = molecular target: T1, Cytochrome P450 2C9 (Homo sapiens, UniProt P11712); test: Drug metabolism in supersomes expressing human recombinant CYP2C9 assessed as enzyme-mediated cyanide adduct formation at 100 uM after 30 mins measured per nmol of P450 by HPLC analysis in presence of KCN
Cytochrome P450 2C19 [2] = molecular target: T2, Cytochrome P450 2C19 (Homo sapiens, UniProt P33261); test: Drug metabolism in supersomes expressing human recombinant CYP2C19 assessed as enzyme-mediated cyanide adduct formation at 100 uM after 30 mins measured per nmol of P450 by HPLC analysis in presence of KCN
Cytochrome P450 2C8 [3] = molecular target: T3, Cytochrome P450 2C8 (Homo sapiens, UniProt P10632); test: Drug metabolism in supersomes expressing human recombinant CYP2C8 assessed as enzyme-mediated N-desmethylclozapine metabolite formation at 10 uM after 30 mins measured per nmol of P450 by HPLC analysis
T3 sequence (P10632 whole entry): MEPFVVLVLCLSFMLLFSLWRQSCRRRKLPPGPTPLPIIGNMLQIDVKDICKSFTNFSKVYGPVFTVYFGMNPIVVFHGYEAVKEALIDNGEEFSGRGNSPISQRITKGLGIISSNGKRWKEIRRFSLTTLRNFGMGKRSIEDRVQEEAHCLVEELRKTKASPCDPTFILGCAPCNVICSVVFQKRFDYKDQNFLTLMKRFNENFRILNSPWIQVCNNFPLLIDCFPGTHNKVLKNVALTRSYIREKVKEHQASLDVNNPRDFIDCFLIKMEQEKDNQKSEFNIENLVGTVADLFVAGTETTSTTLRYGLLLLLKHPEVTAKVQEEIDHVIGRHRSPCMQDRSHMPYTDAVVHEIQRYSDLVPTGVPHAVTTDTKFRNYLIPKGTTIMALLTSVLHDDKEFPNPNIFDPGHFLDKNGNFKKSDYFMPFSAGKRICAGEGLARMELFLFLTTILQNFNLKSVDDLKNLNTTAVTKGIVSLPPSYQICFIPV

Cytochrome P450 2C8 [4] = molecular target: T3, Cytochrome P450 2C8; test: Drug metabolism in supersomes expressing human recombinant CYP2C8 assessed as enzyme-mediated clozapine-N-oxide metabolite formation at 10 uM after 30 mins measured per nmol of P450 by HPLC analysis
Cytochrome P450 2D6 [5] = molecular target: T4, Cytochrome P450 2D6 (Homo sapiens, UniProt P10635); test: Drug metabolism in supersomes expressing human recombinant CYP2D6 assessed as enzyme-mediated clozapine-N-oxide metabolite formation at 10 uM after 30 mins measured per nmol of P450 by HPLC analysis
Cytochrome P450 1B1 [6] = molecular target: T5, Cytochrome P450 1B1 (Homo sapiens, UniProt Q16678); test: Drug metabolism in supersomes expressing human recombinant CYP1B1 assessed as enzyme-mediated clozapine-N-oxide metabolite formation at 100 uM after 30 mins measured per nmol of P450 by HPLC analysis
T5 sequence (Q16678 whole entry): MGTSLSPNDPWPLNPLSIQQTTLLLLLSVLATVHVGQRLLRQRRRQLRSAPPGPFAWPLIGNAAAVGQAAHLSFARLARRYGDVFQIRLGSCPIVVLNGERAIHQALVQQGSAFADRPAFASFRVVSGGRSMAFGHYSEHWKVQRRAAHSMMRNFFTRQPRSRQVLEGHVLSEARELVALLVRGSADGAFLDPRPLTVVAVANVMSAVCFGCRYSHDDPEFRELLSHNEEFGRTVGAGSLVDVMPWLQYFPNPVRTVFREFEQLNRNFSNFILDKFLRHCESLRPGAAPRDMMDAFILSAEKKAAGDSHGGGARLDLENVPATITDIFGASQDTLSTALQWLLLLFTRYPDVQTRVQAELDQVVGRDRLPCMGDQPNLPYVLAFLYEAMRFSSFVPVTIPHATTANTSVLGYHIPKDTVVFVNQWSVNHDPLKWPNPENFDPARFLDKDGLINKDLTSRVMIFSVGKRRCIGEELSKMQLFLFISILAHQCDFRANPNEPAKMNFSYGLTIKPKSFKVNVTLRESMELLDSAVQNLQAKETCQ

Cytochrome P450 2C9 [7] = molecular target: T1, Cytochrome P450 2C9; test: Drug metabolism in supersomes expressing human recombinant CYP2C9 assessed as enzyme-mediated clozapine-N-oxide metabolite formation at 100 uM after 30 mins measured per nmol of P450 by HPLC analysis
Cytochrome P450 2C19 [8] = molecular target: T2, Cytochrome P450 2C19; test: Drug metabolism in supersomes expressing human recombinant CYP2C19 assessed as enzyme-mediated clozapine-N-oxide metabolite formation at 100 uM after 30 mins measured per nmol of P450 by HPLC analysis
Cytochrome P450 1A2 [9] = molecular target: T6, Cytochrome P450 1A2 (Homo sapiens, UniProt P05177); test: Drug metabolism in supersomes expressing human recombinant CYP1A2 assessed as enzyme-mediated total GSH conjugate formation at 10 uM after 30 mins measured per nmol of P450 by HPLC analysis in presence of GSH and hGST P1-1
T6 sequence (P05177 whole entry): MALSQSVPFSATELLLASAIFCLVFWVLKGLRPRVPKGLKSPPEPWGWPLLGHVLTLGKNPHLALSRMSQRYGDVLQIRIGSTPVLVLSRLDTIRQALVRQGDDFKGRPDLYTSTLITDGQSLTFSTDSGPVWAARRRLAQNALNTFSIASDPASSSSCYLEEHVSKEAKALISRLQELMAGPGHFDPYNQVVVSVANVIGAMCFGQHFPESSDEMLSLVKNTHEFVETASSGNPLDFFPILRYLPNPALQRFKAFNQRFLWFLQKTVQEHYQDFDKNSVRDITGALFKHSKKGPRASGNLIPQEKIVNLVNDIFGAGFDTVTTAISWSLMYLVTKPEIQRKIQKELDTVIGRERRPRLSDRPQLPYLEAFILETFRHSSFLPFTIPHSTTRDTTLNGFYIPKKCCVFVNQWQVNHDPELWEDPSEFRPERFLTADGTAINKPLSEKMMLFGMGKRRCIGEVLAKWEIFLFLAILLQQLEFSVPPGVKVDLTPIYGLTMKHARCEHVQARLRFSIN

Cytochrome P450 1B1 [10] = molecular target: T5, Cytochrome P450 1B1; test: Drug metabolism in supersomes expressing human recombinant CYP1B1 assessed as enzyme-mediated total GSH conjugate formation at 10 uM after 30 mins measured per nmol of P450 by HPLC analysis in presence of GSH and hGST P1-1
Cytochrome P450 2D6 [11] = molecular target: T4, Cytochrome P450 2D6; test: Drug metabolism in supersomes expressing human recombinant CYP2D6 assessed as enzyme-mediated total GSH conjugate formation at 10 uM after 30 mins measured per nmol of P450 by HPLC analysis in presence of GSH and hGST P1-1
Cytochrome P450 1B1 [12] = molecular target: T5, Cytochrome P450 1B1; test: Drug metabolism in supersomes expressing human recombinant CYP1B1 assessed as enzyme-mediated total GSH conjugate formation at 100 uM after 30 mins measured per nmol of P450 by HPLC analysis in presence of GSH and hGST P1-1
Cytochrome P450 1A2 [13] = molecular target: T6, Cytochrome P450 1A2; test: Drug metabolism in supersomes expressing human recombinant CYP1A2 assessed as enzyme-mediated N-desmethylclozapine metabolite formation at 100 uM after 30 mins measured per nmol of P450 by HPLC analysis
Cytochrome P450 2D6 [14] = molecular target: T4, Cytochrome P450 2D6; test: Drug metabolism in supersomes expressing human recombinant CYP2D6 assessed as enzyme-mediated N-desmethylclozapine metabolite formation at 100 uM after 30 mins measured per nmol of P450 by HPLC analysis

T4 sequence (P10635 whole entry): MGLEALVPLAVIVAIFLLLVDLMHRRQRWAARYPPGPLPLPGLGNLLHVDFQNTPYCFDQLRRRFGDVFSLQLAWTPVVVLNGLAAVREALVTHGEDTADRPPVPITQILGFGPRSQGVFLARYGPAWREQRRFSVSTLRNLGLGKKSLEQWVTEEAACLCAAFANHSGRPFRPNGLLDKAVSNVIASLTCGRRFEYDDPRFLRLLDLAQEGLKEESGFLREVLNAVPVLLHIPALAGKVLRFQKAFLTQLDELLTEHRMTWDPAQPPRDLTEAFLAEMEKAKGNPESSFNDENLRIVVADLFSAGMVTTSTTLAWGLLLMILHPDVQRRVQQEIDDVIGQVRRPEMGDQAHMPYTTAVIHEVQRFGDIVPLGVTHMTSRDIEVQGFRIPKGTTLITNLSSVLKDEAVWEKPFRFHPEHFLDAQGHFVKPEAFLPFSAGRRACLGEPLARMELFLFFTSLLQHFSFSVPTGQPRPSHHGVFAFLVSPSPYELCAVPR
T1 sequence (P11712 whole entry): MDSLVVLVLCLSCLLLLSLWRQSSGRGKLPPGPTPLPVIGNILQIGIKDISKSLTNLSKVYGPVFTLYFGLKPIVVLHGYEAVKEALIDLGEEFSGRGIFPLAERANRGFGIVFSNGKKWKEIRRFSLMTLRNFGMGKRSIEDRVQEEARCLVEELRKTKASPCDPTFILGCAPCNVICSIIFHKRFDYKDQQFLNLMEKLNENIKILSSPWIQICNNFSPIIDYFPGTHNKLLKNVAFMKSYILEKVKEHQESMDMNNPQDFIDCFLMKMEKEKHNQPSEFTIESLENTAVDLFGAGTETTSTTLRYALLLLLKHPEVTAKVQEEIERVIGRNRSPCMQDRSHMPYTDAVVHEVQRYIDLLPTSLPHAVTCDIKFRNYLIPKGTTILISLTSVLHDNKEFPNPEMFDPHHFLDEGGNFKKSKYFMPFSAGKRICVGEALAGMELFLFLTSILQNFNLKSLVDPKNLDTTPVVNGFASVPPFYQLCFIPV
T2 sequence (P33261 whole entry): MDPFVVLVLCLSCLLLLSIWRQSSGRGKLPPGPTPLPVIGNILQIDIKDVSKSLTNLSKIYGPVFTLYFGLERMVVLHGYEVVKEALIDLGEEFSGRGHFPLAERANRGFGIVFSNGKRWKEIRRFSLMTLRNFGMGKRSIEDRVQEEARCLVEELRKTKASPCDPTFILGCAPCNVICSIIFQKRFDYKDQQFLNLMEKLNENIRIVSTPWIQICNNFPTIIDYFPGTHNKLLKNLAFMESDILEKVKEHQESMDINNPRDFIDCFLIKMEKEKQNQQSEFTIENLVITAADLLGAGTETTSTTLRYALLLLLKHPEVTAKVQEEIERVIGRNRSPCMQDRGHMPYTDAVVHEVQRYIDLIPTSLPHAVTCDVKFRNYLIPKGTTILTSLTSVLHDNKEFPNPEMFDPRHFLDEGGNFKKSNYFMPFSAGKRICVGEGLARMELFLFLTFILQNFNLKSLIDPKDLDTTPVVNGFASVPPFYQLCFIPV

CN1CCN(C2=Nc3cc(Cl)ccc3Nc3ccccc32)CC1 [CLOZAPINE]
Drug metabolism (Cytochrome P450 2C9 [1]): 0.01 nmol/min
Drug metabolism (Cytochrome P450 2C19 [2]): 0.03 nmol/min
Drug metabolism (Cytochrome P450 2C8 [3]): 0.92 nmol/min
Drug metabolism (Cytochrome P450 2C8 [4]): 0.1 nmol/min
Drug metabolism (Cytochrome P450 2D6 [5]): 0.51 nmol/min
Drug metabolism (Cytochrome P450 1B1 [6]): 0.64 nmol/min/nmol P450
Drug metabolism (Cytochrome P450 2C9 [7]): 0.057 nmol/min
Drug metabolism (Cytochrome P450 2C19 [8]): 0.58 nmol/min/nmol P450
Drug metabolism (Cytochrome P450 1A2 [9]): 0.06 nmol/min
Drug metabolism (Cytochrome P450 1B1 [10]): 0.15 nmol/min
Drug metabolism (Cytochrome P450 2D6 [11]): 0.47 nmol/min
Drug metabolism (Cytochrome P450 1B1 [12]): 0.15 nmol/min
Drug metabolism (Cytochrome P450 1A2 [13]): 8.71 nmol/min
Drug metabolism (Cytochrome P450 2D6 [14]): 23.7 nmol/min

Reference: ChEMBL document CHEMBL3525934 (Drug Metab Dispos, 2013)
